The nature of this data set: Solubility of the starting material in the solvent. Format: physicochemical. To be noted: solvent MTBE, 20° C., until clear solution. As for the experimental part: Solubility of the Starting Material in the Solvent
To 1 g of HAP is added 5 ml of solvent. The mixture is stirred in a water bath at 20° C. The solvent is further slowly added under stirring until a clear solution appears.
The amount of used solvent is noted.

The structures appear in SMILES notation.

For `CC(=O)c1cccc(O)c1` [HAP, 3-hydroxy-acetophenon], the “Solvent in ml per g HAP” value amounted to 9 ml per g HAP.
